From patent EP4725551A1, “FUSION POLYPEPTIDE AJ007 AND USE THEREOF” (Nanjing Anji Biotechnology Co., Ltd., priority 2023, dated 2026)
Like-named read-outs stand apart in the source and are kept apart here. One block for each molecule: values may come before it. Residues, ends and D or L forms follow the SMILES beside them.

Columns and labels:
[1] = cited from earlier work
[2] = Ocular tissue distribution at equimolar concentration after eye dropping or intravitreal injection, ELISA (Example 5); format: in vivo, C57BL/6J mice; conditions: for active molecules that can reach the RPE/choroid complex: 5 µL per eye; for active molecules that can reach the RPE/choroid complex / maintenance time at the RPE/choroid complex: equimolar concentration
Procedure: Experimental process: All the mice in the eye drop groups were administered bilateral eye drops 1 time, with 5 µL of the corresponding drug solution in each eye. At the 6 time points of 0 h, 1 h, 3 h, 7 h, 12 h, and 24 h after the completion of administration, the mice in the corresponding groups were respectively subjected to eyeball removal and blood collection, the collected whole blood was immediately centrifuged at 6,000 rpm for 5 minutes, and then, a supernatant was sucked and stored as a sample to be tested. Additionally, 3 tissue sites, namely the vitreous body, the retina, and the RPE/choroid complex, were isolated from an eyeball under a stereomicroscope, into which a phosphate buffer solution (PBS) was added at 1:10 for dilution, followed by grinding and centrifugation at 12,000 rpm for 5 minutes. A supernatant was sucked to serve as a sample to be tested. Subsequently, the concentration of the fusion polypeptide AJ007 or the multifunctional fusion polypeptide VI (HM-1) in each tissue was detected by an enzyme-linked immunosorbent assay (ELISA) method. The ELISA method is as follows: • (1) coating: diluting HM-1 with a certain concentration of a coating solution (CBS) to 1 µg/mL, adding the diluted solution into a microplate at 100 µL per well, and standing overnight at 4°C; • (2) plate washing: discarding the coating solution, adding 265 µL of a PBST washing solution to each well, washing 3 times for 3 minutes each time, and beating to dryness; • (3) blocking: adding 200 µL of a 1% BSA blocking solution to each well, placing the solution in a water bath at 37°C for 1.5 hours, repeating the plate washing process, and beating to dryness; • (4) addition of a sample to be tested and an antibody: first, adding 100 µL of the sample to be tested to a microplate, then adding 100 µL of an HM-1 monoclonal antibody dilution solution at a certain concentration, setting 2-3 replicate wells, shaking uniformly on a shaker at 37°C for 2 minutes, then transferring the mixture to a water bath pot for placement at 37°C for 2 hours, taking out the mixture after a thorough reaction, and repeating the plate washing process; • (5) reaction with an enzyme-labeled secondary antibody: adding a certain concentration of HRP enzyme-labeled goat anti-mouse IgG at 100 µL per well for incubation at 37°C for 1.5 hours, repeating the plate washing process, and beating to dryness; • (6) addition of a substrate: adding 100 µL of a TMB substrate chromogenic solution to each well for color development at room temperature in the dark for a certain period of time; • (7) termination: adding 50 µL of a termination solution to each well to terminate the reaction; and • (8) detection: reading an OD value of each well at 450 nm using a microplate reader.
This example provides an ocular tissue distribution comparison experiment of the polypeptide eye drops (AJ007 eye drops) in Example 2 with an equimolar concentration of the multifunctional fusion polypeptide VI (HM-1), a multifunctional fusion polypeptide VI preparation (HM-1 preparation, with a polypeptide being HM-1 and a formulation of other auxiliary materials being the same as the AJ007 eye drops), a fusion polypeptide AJ007 preparation (TAT-HM-1, with a polypeptide being AJ007 and pure water as a vehicle) after eye dropping, and the multifunctional fusion polypeptide VI (HM-1) after intravitreal injection, which is specifically described below.
Animal grouping: […] C57BL/6J mice were randomly divided into a total of 7 time point groups, including 0 h, 10 min, 1 h, 3 h, 7 h, 12 h, and 24 h, with 2 mice in each group.
Experimental process: All the mice in the eye drop administration groups were administered bilateral eye drops 1 time, with 5 µL of a corresponding drug solution dropped into each eye, while 5 µL of a corresponding drug solution was injected into both eyes in the HM-1 intravitreal injection group. […]

Molecule: ranibizumab
concentration reaching the retina after eye dropping, increase ([1]; after linking to a cell-penetrating peptide, patents CN114073774A, CN114668717A): approximately 100 times

Molecule: bevacizumab
ability to penetrate through and enter the posterior segment of the eye after eye dropping, increase ([1]; after linking to a cell-penetrating peptide CPP): approximately 10 times

Molecule: axitinib
concentration reaching the retina after eye dropping, increase ([1]; in vivo): 5-10 times

Molecule: C[C@H](NC(=O)CNC(=O)[C@H](CCCNC(=N)N)NC(=O)[C@H](CCCNC(=N)N)NC(=O)[C@H](CCCNC(=N)N)NC(=O)[C@H](CCCNC(=N)N)NC(=O)[C@H](CCC(N)=O)NC(=O)[C@H](CCCNC(=N)N)NC(=O)[C@H](CCCNC(=N)N)NC(=O)[C@H](CCCCN)NC(=O)[C@H](CCCCN)NC(=O)[C@H](CCCNC(=N)N)NC(=O)CNC(=O)[C@@H](N)Cc1ccc(O)cc1)C(=O)N[C@@H](CC(=O)O)C(=O)N[C@@H](CCCNC(=N)N)C(=O)N[C@@H](C)C(=O)NCC(=O)NCC(=O)NCC(=O)NCC(=O)N[C@@H](CCCNC(=N)N)C(=O)NCC(=O)N[C@@H](CC(=O)O)C(=O)O [AJ007] (H-YGRKKRRQRRRRGADRAGGGGRGD-OH)
ability to penetrate through the posterior segment of ocular, increase compared with HM-1 ([2]; eye dropping): approximately 600 times
active molecules that can reach the RPE/choroid complex ([2]; single eye dropping): 6291.38 ng/mL
active molecules that can reach the RPE/choroid complex ([2]; single eye dropping, listed as TAT-HM-1): 843.28 ng/mL
maintenance time at the RPE/choroid complex ([2]; single eye dropping): the maintenance time is also shorter

active molecules that can reach the RPE/choroid complex ([2]; intravitreal injection): approximately 5729.7 ng/mL
maintenance time at the RPE/choroid complex ([2]; intravitreal injection): the maintenance time is shorter
active molecules that can reach the RPE/choroid complex ([2]; single eye dropping): less than 10 ng/mL
maintenance time at the RPE/choroid complex ([2]; single eye dropping): very short
Molecule: C[C@H](NC(=O)CNC(=O)[C@@H](N)CCCNC(=N)N)C(=O)N[C@@H](CC(=O)O)C(=O)N[C@@H](CCCNC(=N)N)C(=O)N[C@@H](C)C(=O)NCC(=O)NCC(=O)NCC(=O)NCC(=O)N[C@@H](CCCNC(=N)N)C(=O)NCC(=O)N[C@@H](CC(=O)O)C(=O)O [HM-1, Arg-Gly-Ala-Asp-Arg-Ala-Gly-Gly-Gly-Gly-Arg-Gly-Asp] (H-RGADRAGGGGRGD-OH)
